The source of these data is ChEMBL document CHEMBL1143627, “Enantiomerically pure hexahydropyrazinoquinolines as potent and selective dopamine 3 subtype receptor ligands” (J Med Chem, 2005).

One test has as its target D(2) dopamine receptor (Rattus norvegicus, UniProt P61169). Nature of the test: Inhibition of [3H]spiperone binding to Dopamine receptor D2-like in rat caudate-putamen membrane. In kind it is cell membranes.
A further test has as its target D(3) dopamine receptor (Rattus norvegicus, UniProt P19020). Nature of the test: biochemical.

D(2) dopamine receptor, sequence (P61169 whole entry): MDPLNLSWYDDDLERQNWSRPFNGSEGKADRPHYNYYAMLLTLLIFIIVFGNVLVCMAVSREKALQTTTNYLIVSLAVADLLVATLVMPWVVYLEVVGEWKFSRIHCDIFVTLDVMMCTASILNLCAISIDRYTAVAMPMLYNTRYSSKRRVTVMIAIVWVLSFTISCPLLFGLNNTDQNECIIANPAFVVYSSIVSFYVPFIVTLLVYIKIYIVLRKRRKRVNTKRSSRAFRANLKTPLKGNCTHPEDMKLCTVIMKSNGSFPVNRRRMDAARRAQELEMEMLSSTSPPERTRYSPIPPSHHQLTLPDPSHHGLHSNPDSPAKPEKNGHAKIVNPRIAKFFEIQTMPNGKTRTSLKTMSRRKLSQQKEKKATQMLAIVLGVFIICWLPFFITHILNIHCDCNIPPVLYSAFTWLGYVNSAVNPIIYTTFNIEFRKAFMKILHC
D(3) dopamine receptor, sequence (P19020 whole entry): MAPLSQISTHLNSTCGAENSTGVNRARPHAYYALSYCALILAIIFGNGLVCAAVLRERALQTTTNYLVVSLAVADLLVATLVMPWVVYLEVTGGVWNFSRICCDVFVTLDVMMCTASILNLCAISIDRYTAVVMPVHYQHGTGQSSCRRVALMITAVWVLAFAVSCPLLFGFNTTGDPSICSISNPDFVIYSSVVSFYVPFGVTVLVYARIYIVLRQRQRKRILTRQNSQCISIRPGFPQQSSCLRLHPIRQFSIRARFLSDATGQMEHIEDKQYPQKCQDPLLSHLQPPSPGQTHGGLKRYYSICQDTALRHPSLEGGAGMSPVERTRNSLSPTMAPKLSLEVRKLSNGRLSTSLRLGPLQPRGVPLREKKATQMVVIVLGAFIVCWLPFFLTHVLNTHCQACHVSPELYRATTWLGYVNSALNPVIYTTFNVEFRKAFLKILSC
Description for D(3) dopamine receptor: Inhibition of [3H]-PD 128907 binding to Dopamine receptor D3 in rat ventral striatum

On to `O=C(NCCCCN1CCN2c3ccccc3CCC2C1)c1ccc2ccccc2c1` (stereo not drawn), for which the Ki (usually the equilibrium dissociation constant of an inhibitor or competing ligand from its target) at D(2) dopamine receptor came to 1570 nM. As for `COc1ccc2c(c1)CC[C@@H]1CN(CCN3CCC(NC(=O)c4ccc5ccccc5c4)CC3)CCN21`, the Ki was 4640 nM on D(3) dopamine receptor and above 50000 nM at D(2) dopamine receptor. On to `O=C(NCCCCN1CCN2c3ccccc3CC[C@@H]2C1)c1ccc2ccccc2c1`, for which the inhibition constant Ki stood at 19 nM on D(3) dopamine receptor and 585 nM at D(2) dopamine receptor. Turning to `COc1ccc2c(c1)CC[C@H]1CN(CCC3CCC(NC(=O)c4ccc5ccccc5c4)CC3)CCN21` (stereo partly drawn), the Ki on D(3) dopamine receptor is 10 nM; at D(2) dopamine receptor, above 10000 nM. With `COc1ccc2c(c1)CC[C@@H]1CN(CCCCNC(=O)c3ccc4ccccc4c3)CCN21`, the Ki on D(3) dopamine receptor was 67 nM; on D(2) dopamine receptor, above 100000 nM. Consider `COc1ccc2c(c1)N1CCN(CCCCNC(=O)c3ccc4ccccc4c3)C[C@@H]1CC2`, for which the values for the Ki on D(3) dopamine receptor and on D(2) dopamine receptor were 96 nM and 990 nM, respectively. In turn, `COc1cccc2c1N1CCN(CCCCNC(=O)c3ccc4ccccc4c3)C[C@H]1CC2` yielded an inhibition constant Ki at D(2) dopamine receptor of 312 nM.

`COc1ccc2c(c1)CC[C@H]1CN(CCCCNC(=O)c3ccc4ccccc4c3)CCN21`: the Ki was 126 nM on D(3) dopamine receptor and above 50000 nM on D(2) dopamine receptor. `COc1ccc2c(c1)CC[C@H]1CN(CCN3CCC(NC(=O)c4ccc5ccccc5c4)CC3)CCN21`: the Ki on D(3) dopamine receptor was 7160 nM; at D(2) dopamine receptor, above 25000 nM. Take `O=C(CCCN1CCN2c3ccccc3CCC2C1)c1ccc(F)cc1` (stereo not drawn): the Ki on D(2) dopamine receptor amounted to 243 nM. Take `COc1ccc2c(c1)N1CCN(CCCCNC(=O)c3ccc4ccccc4c3)C[C@H]1CC2`: the figures for the Ki at D(3) dopamine receptor and at D(2) dopamine receptor were 44 nM and 1720 nM, respectively. With `COc1cccc2c1CC[C@H]1CN(CCCCNC(=O)c3ccc4ccccc4c3)CCN21`, the Ki is 9.3 nM at D(3) dopamine receptor and 659 nM on D(2) dopamine receptor. On D(2) dopamine receptor, `COc1cccc2c1N1CCN(CCCCNC(=O)c3ccc4ccccc4c3)C[C@@H]1CC2` showed a Ki of 88 nM.

Consider `O=C(NCCCCN1CCN2c3ccccc3CC[C@H]2C1)c1ccc2ccccc2c1`, for which the figures for the Ki on D(3) dopamine receptor and on D(2) dopamine receptor were 16 nM and 180 nM, respectively. The corresponding values for `COc1cccc2c1CC[C@@H]1CN(CCCCNC(=O)c3ccc4ccccc4c3)CCN21` are 8.3 nM and 644 nM. On to `COc1ccc2c(c1)CC[C@@H]1CN(CC[C@H]3CC[C@H](NC(=O)c4ccc5ccccc5c4)CC3)CCN21`, for which the Ki at D(3) dopamine receptor is 5.7 nM; at D(2) dopamine receptor it was above 10000 nM.
